In one test the test system is Botrytis cinerea. In words: Example C bean grey mold. Conditions: 100 PPM; for pest or weed control at 100 ppm: Botrytis cinerea, 24 h, read-out: disease control rating, Ex. C. Format: in vivo. In outline: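 Spray rates: 100 and 20 ppm. Vehicle: purified water with 6% acetone by final volume plus 250 ppm TREM 014 (polyhydric alcohol esters). Host plants, broad bean seedlings, were wetted until run-off.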

Test [1] relates to Rhizoctonia solani. As to the kind of experiment: Example K cotton blight. Conditions: 336 h, 5 kg/ha, read-out: disease control rating, Ex. K. Format: in vivo. As to the method: […] Seeds and soil were then inoculated with a mixture of sand, cereal and mycelium of the fungus Rhizoctonia solani, causal agent of cotton blight, and incubated in a growth chamber at 30° C. for 14 days. Disease ratings were then made.

A further test concerns Pyricularia oryzae. In words: whole plant or invertebrate. Format: in vivo. Conditions: for pest or weed control at 100 ppm: Pyricularia oryzae, 120 h, read-out: disease control rating, Ex. E, 100 PPM.
The next test deals with Sclerotium rolfsii. As to the kind of experiment: Example M southern blight. Type of test: in vivo. The conditions noted are these: Agroathelia rolfsii, 336 h; 5 kg/ha; read-out: disease control rating, Ex. M. As for the experimental part:
[…] Seeds and soil were then inoculated with a mixture of sand, cereal and mycelium of the fungus Sclerotium rolfsii, causal agent of sourthern blight, and incubated in a growth chamber at 30° C. for 14 days. Disease ratings were then made.

In test [2] the test system is Rhizoctonia solani. As to the kind of experiment: Example F rice sheath blight. The conditions noted are these: 100 PPM; for pest or weed control at 100 ppm: Rhizoctonia solani, 144 h, read-out: disease control rating, Ex. F. Type of test: in vivo. In short, it runs like this:
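Foliar run-off spray, rice seedlings: compound at 100 or 20 ppm in aqueous 250 ppm polyhydric alcohol ester surfactant, acetone 6% v/v final.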

The next test relates to Venturia inaequalis. In words: Example A apple scab. Conditions: 100 PPM, read-out: disease control rating, Ex. A. Type of test: in vivo. In short, it runs like this:
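Spray application to run-off on apple seedlings; compound at 100 or 20 ppm in water with 250 ppm TREM 014 (polyhydric alcohol esters) and 6% acetone of final volume.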

The subject of test [3] is Cercosporidium personatum. In words: Example B Peanut Late Leafspot. Format: in vivo. The conditions noted are these: Nothopassalora personata; 100 PPM; read-out: disease control rating, Ex. B. In outline: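 Spray suspensions at 100 or 20 ppm, prepared from acetone solutions (acetone 6% of final volume) in water carrying 250 ppm of a polyhydric alcohol ester surfactant, were applied to peanut seedlings until run-off.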

The subject of test [4] is Candida albicans ATCC 11651. As to the kind of experiment: In vivo systemic Candida infection in mice, primary assay. On the set-up: species or system Candida albicans; CF-1 female mice. Conditions: 150 mg/kg per day; for responders at 150 mg/kg: Candida albicans, read-out: % Survival. In outline: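 CF-1 female mice (20 g, 10 per group) were infected IV with 0.2 ml of 1×10^7/ml C. albicans ATCC 11651, then given test compound subcutaneously at 50 or 150 mg/kg/day at 1 and 6 h post-infection and once daily for three more days. Survival was followed for 21 days against infected untreated mice; ≥70% protection at 14 days was scored active.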

The next test has as its system Phytophthora infestans. In words: whole plant or invertebrate. Type of test: in vivo. The conditions noted are these: for pest or weed control at 100 ppm: Phytophthora infestans, in Solanum lycopersicum, read-out: disease control rating, Ex. H, 100 PPM.
Test [5] relates to Fusarium oxysporum f. sp. cucumerinum. In words: Example L cucumber wilt. Format: in vivo. The conditions noted are these: 336 h, 5 kg/ha, read-out: disease control rating, Ex. L. As for the experimental part:
[…] Seeds and soil were then inoculated with a mixture of sand, cereal and mycelium of the fungus Fusarium oxysporum f. sp. cucumerinum, causal agent of cucumber wilt, and incubated in a growth chamber at 30° C. for 14 days. Disease ratings were then made.

Test [6] concerns Erysiphe graminis f. sp. tritici. As to the kind of experiment: Example D wheat powdery mildew. Format: in vivo. The conditions noted are these: Blumeria graminis, 144 h; 100 PPM; read-out: disease control rating, Ex. D. In outline:
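Seedling wheat was treated by spraying to run-off; formulation used acetone as co-solvent (6% final) and TREM 014 surfactant at 250 ppm, with compound at 100 or 20 ppm.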

The subject of test [7] is Aspergillus fumigatus ATCC 28214. In words: In vitro antifungal MIC, microtiter broth dilution. Conditions: for MIC values, A. fumigatus: 30°, 24 hours; for MIC: Aspergillus fumigatus, ATCC28214, 24 h, read-out: MIC values, A. fumigatus, 30°, 24 hours.
In a further test the test system is Puccinia recondita. As to the kind of experiment: Example G wheat leaf rust. Type of test: in vivo. Conditions: 100 PPM, read-out: disease control rating, Ex. G.
The test system of a further test is Pythium aphanadermatum. In words: Example J cucumber damping off. Format: in vivo. Conditions: Pythium, 336 h; 5 kg/ha; read-out: disease control rating, Ex. J. In short, it runs like this:
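Seeds and soil were inoculated with a mix of sand, cereal and Pythium aphanadermatum mycelium, the fungus responsible for cucumber damping off. They were kept in a growth chamber at 30° C. for 14 days, and disease was then rated to assess control.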

In test [8] the test system is Candida albicans ATCC 11651. In words: In vitro antifungal MIC, microtiter broth dilution. The conditions noted are these: for MIC values, C. albicans: 30°, 24 hours; for MIC: Candida albicans, ATCC11651, 24 h, read-out: MIC values, C. albicans, 30°, 24 hours. On the technique in general: Dilution methods test growth across graded concentrations, often in twofold steps.
Procedure: In vitro activity (Table 5) is expressed in terms of the minimal inhibitory concentration (MIC) of the test compound which inhibits the growth of yeasts and fungi.
The target organisms, Candida albicans ATCC 11651 and Aspergillus fumigatus ATCC 28214 are standardized, [V. Bezjak, J. Clinical Micro., 21 509-512 (1984)], to a concentration of 10^7 organisms/ml and maintained at -70° until use. Test compounds are solubilized in dimethyl sulfoxide (DMSO) and diluted in Eagle's Minimum Essential Medium (EMEM) broth to achieve a final concentration of 200 μg/ml. Stock solutions of standard antifungal agents are stored at -70° and diluted in EMEM as required.
The in vitro assay utilizes a microtiter broth dilution technique [L. Polonelli and G. Morace, Mycopathologia, 86, 21-28 (1984)] and C. […] The appropriate wells are inoculated with the required organism (C. albicans at 1×10^4 organisms/ml and A. fumigatus at 5×10^5 organisms/ml) and the assay incubated at 30° for 24 hours.

The subject of another test is Plasmorpara viticola. As to the kind of experiment: Example I grape downy mildew. Format: in vivo. Conditions: read-out: disease control rating, Ex. I. In outline:
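Compounds were dissolved in acetone (6% of final volume) and suspended at 100 or 20 ppm in purified water with 250 ppm TREM 014 surfactant (polyhydric alcohol esters). Grape seedlings were sprayed with this suspension to run-off.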

Data on six molecules can be found in patent US4965280A, “Antifungal carbinols” (E. I. Du Pont de Nemours and Company, priority 1989, dated 1990).

The structures appear in SMILES notation. Values after ≈ are worked out from the molar mass of the structure shown. Read-outs that look alike come from different tables or passages of the source.

Turning to `C=C(c1ccc(F)cc1)C(O)(Cn1cncn1)c1ccc(F)cc1` (single isomer, unassigned) [Example 1277], the “disease control rating, Ex. C” value in the test with Botrytis cinerea was 0%. The pest or weed control at 5000 g/ha (in the test with Rhizoctonia solani [1]; in the test on Sclerotium rolfsii; in [5]; with Pythium aphanadermatum) was 0% each time. Also, in the test on Pyricularia oryzae (100 PPM), the “disease control rating, Ex. E” value worked out at 0%. For the same molecule, the “disease control rating, Ex. F” value with Rhizoctonia solani [2] was determined as 0%. For the same molecule, the pest or weed control at 100 ppm with Venturia inaequalis was found to be 9%; in [3], 65%; in [6], 0%; in the test with Puccinia recondita, 39%; with Plasmorpara viticola, 25%. Moreover, the “% Survival” value in test [4] (day 14) is reported as 100%; in [4] (day 21) it was 90%. Besides, the responders at 150 mg/kg in test [4] (ATCC11651, 168 h, day 7) was 100%. Besides, the “disease control rating, Ex. H” value in the test on Phytophthora infestans (100 PPM) amounted to 0%. In addition, the “MIC values, A. fumigatus” value in test [7] stood at 6.3 µg/mL (≈ 19.2 µM). For the same molecule, the “MIC values, C. albicans” value in [8] was found to be 0.03 µg/mL (≈ 0.0916 µM).

In the case of `C=C(c1ccccc1F)C(O)(Cn1cncn1)c1ccc(F)cc1` (centres unmarked) [Example 10], the pest or weed control at 100 ppm is 52% with Botrytis cinerea; 0% in the test on Pyricularia oryzae; 17% in the test on Rhizoctonia solani [2]; 0% with Venturia inaequalis; 76% in test [3]; 0% with Phytophthora infestans. For the same molecule, the pest or weed control at 100 ppm was 63% in test [6], 64% in the test with Puccinia recondita and 0% in the test with Plasmorpara viticola. The pest or weed control at 5000 g/ha (with Rhizoctonia solani [1]; in the test on Sclerotium rolfsii; in test [5]; with Pythium aphanadermatum) was 0% in each case. Besides, the responders at 150 mg/kg was determined as 20% in [4] (ATCC11651, 168 h, day 7); 10% in test [4] (ATCC11651, 336 h, day 14); 0% in [4] (ATCC11651, 504 h, day 21). Further, the MIC in [7] came to 25 µg/mL (≈ 76.4 µM); in test [8], 1.6 µg/mL (≈ 4.89 µM).

As to `C=C(c1ccc(Cl)cc1)C(O)(Cn1cncn1)c1ccc(Cl)cc1Cl` (centres unmarked) [Example 26, 2-(2,4-Dichlorophenyl)-3-(4-chlorophenyl)-1-(1H-1,2,4-triazol-1-yl)-3-buten-2-ol], the pest or weed control at 100 ppm amounted to 96% with Botrytis cinerea; 31% with Pyricularia oryzae; 61% in the test on Rhizoctonia solani [2]; 100% with Venturia inaequalis; 100% in test [3]; 23% in the test on Phytophthora infestans. For the same molecule, the pest or weed control at 100 ppm in test [6] worked out at 86%; in the test with Puccinia recondita, 97%; in the test on Plasmorpara viticola, 86%. Besides, the pest or weed control at 5000 g/ha was 25% in the test with Rhizoctonia solani [1], 35% in the test on Sclerotium rolfsii, 25% in [5] and 0% with Pythium aphanadermatum. Moreover, the responders at 150 mg/kg was 100% in test [4] (ATCC11651, 168 h, day 7); 100% in test [4] (ATCC11651, 336 h, day 14); 100% in [4] (ATCC11651, 504 h, day 21). For the same molecule, in [7], the “MIC values, A. fumigatus” value worked out at 12.5 µg/mL (≈ 31.7 µM). In addition, the “MIC values, C. albicans” value in test [8] is not above 0.4 µg/mL.

On to `C=C(c1ccc(Cl)cc1)C(O)(Cn1cncn1)c1ccc(Cl)cc1` (centres unmarked) [Example 27], for which the pest or weed control at 100 ppm is 88% in the test on Botrytis cinerea; 95% with Pyricularia oryzae; 100% in the test on Rhizoctonia solani [2]; 62% with Venturia inaequalis; 100% in test [3]; 24% in the test on Phytophthora infestans. In addition, the pest or weed control at 100 ppm in test [6] amounted to 98%; in the test with Puccinia recondita, 100%; in the test on Plasmorpara viticola, 84%. The pest or weed control at 5000 g/ha (with Rhizoctonia solani [1]; with Sclerotium rolfsii; in [5]; in the test with Pythium aphanadermatum) was 0% in each case. The responders at 150 mg/kg in test [4] (ATCC11651, 168 h, day 7) is 100%; in test [4] (ATCC11651, 336 h, day 14), 100%; in test [4] (ATCC11651, 504 h, day 21), 100%. The MIC in test [7] is 12.5 µg/mL (≈ 34.7 µM); in [8], not above 0.4 µg/mL.

For the molecule `C=C(c1ccc(Cl)cc1)C(O)(Cn1cncn1)c1ccc(F)cc1F` (centres unmarked) [Example 28, 2-(2,4-Difluorophenyl)-3-(4-chlorophenyl)-1-(1H-1,2,4-triazol-1-yl)-3-buten-2-ol], the pest or weed control at 100 ppm in the test with Botrytis cinerea was 88%; in the test on Pyricularia oryzae, 81%; in the test with Rhizoctonia solani [2], 100%; in the test on Venturia inaequalis, 89%; in test [3], 100%; with Phytophthora infestans, 0%. The figures for the pest or weed control at 100 ppm (in test [6]; in the test with Puccinia recondita; in the test on Plasmorpara viticola) were 98%, 100% and 6%, respectively. The pest or weed control at 5000 g/ha (in the test on Rhizoctonia solani [1]; in the test with Sclerotium rolfsii; in test [5]; in the test with Pythium aphanadermatum) was 0% throughout. Moreover, the responders at 150 mg/kg in test [4] (ATCC11651, 168 h, day 7) was 100%; in test [4] (ATCC11651, 336 h, day 14), 90%. In addition, the MIC in test [7] is 1.6 µg/mL (≈ 4.42 µM); in test [8], 0.03 µg/mL (≈ 0.0829 µM).

Consider `C=C(c1ccccc1)C(O)(Cn1ncnc1SCCCC)c1ccc(F)cc1` (centres unmarked) [Example 1459], for which the pest or weed control at 100 ppm amounted to 65% in the test on Botrytis cinerea; 17% in the test on Pyricularia oryzae; 0% in the test on Rhizoctonia solani [2]; 72% in the test on Venturia inaequalis; 70% in test [3]; 0% with Phytophthora infestans. The figures for the pest or weed control at 100 ppm (in [6]; with Puccinia recondita; in the test on Plasmorpara viticola) were 31%, 65% and 74%, respectively. Further, the pest or weed control at 5000 g/ha (in the test with Rhizoctonia solani [1]; in the test on Sclerotium rolfsii; in test [5]; in the test on Pythium aphanadermatum) was 0% each time. Moreover, the minimum inhibitory concentration (MIC) in test [7] and in test [8] was more than 100 µg/mL in each case.

Usually MIC stands for the lowest concentration that inhibits growth of the organism.
